This note sets out measurements from US11852971B2, “Compound, photosensitive resin composition including the same, photosensitive resin layer, color filter and display device” (SAMSUNG SDI CO., LTD., priority 2019, dated 2023).

Molecules are shown by their SMILES.

The nature of data set [1]: Measurement of the shortest wavelength of full width at half maximum (FWHM) with respect to maximum absorption wavelength (absorption spectrum). Format: physicochemical. The following applies: 0.005 wt % in PGMEA; UV-1800. The text has this:
The shortest wavelength of the full width at half maximum (FWHM) with respect to the maximum absorption wavelengths denotes a wavelength having the smallest value (a) among the energy widths (Δλ) of the maximum absorption wavelength (b) in the absorption spectrum of a particular phthalocyanine compound. (Refer to the FIGURE)
Evaluation 1: Measurement of the Shortest Wavelength of Full Width at Half Maximum (FWHM) with respect to Maximum Absorption Wavelength
The compounds according to Synthesis Example 1 to Synthesis Example 21 and Comparative Synthesis Example 1 to Comparative Synthesis Example 6 were prepared at a concentration of 0.005 wt % using a diluting solvent (PGMEA). Absorption spectra were obtained for each of the phthalocyanine compounds according to Synthesis Example 1 to […] and Comparative Synthesis Example 1 to Comparative Synthesis Example 6, and the results are shown in Table 1 (UV-1800, SHTMADZU).

The nature of data set [2]: Solubility measurement in dilution solvent (PGMEA). Format: physicochemical. The note with it: PGMEA added to 0.5 g compound, stirred 100 rpm, one hour, 25° C. As for the experimental part:
Evaluation 2: Solubility Measurement Solubility of the compounds according to Synthesis Examples 11 to 21 and Comparative Synthesis Examples 1 to 6 were measured by adding a dilution solvent (PGMEA) to 0.5 g of each compound and respectively stirring the mixtures (MIXROTAR VMR-5, Iuchi Seiei Dou Co.) at 100 rpm for one hour at 25° C., and the results are shown in Table 2. Solubility Evaluation Criteria Greater than or equal to 10 wt % of a compound (a solute) based on a total amount of a diluting solvent was dissolved: ∘ Less than 10 wt % of a compound (a solute) based on a total amount of a diluting solvent was dissolved: X

For the compound `CC(C)(C)c1ccccc1Oc1c(Cl)c(Cl)c2c(c1Cl)/C1=N/c3c4c(Cl)c(Oc5ccccc5C(C)(C)C)c(Cl)c(Cl)c4c4[n]3[Zn][n]3/c(c5ccccc5/c3=N/C2=N1)=N\C1=NC(=N\4)/c2c(Cl)c(Cl)c(Cl)c(Cl)c21` [Synthesis Example 3], the “The shortest wavelength (nm) of full width at half maximum (FWHM) with respect to maximum absorption wavelength” value (“The shortest wavelength (nm)” below) in data set [1] stood at 618 nm. Besides, the Solubility result in data set [2] is “○”.
For the compound `COc1ccc(Oc2c(Cl)c(Cl)c3c(c2Cl)C2=NC/3=N\c3c4c(Cl)c(Oc5ccc(OC)cc5OC)c(Cl)c(Cl)c4c4[n]3[Zn][n]3/c(c5c(Cl)c(Cl)c(Oc6ccc(OC)cc6OC)c(Cl)c5/c3=N/C3=NC(=N\4)/c4c(Cl)c(Oc5ccc(OC)cc5OC)c(Cl)c(Cl)c43)=N\2)c(OC)c1` [Comparative Synthesis Example 3, reference compound], the “The shortest wavelength (nm)” value in data set [1] is 623 nm. Besides, the Solubility entry in data set [2] is listed as “X (Less than 10 wt % of a compound (a solute) based on a total amount of a diluting solvent was dissolved)”.
The matching figures for `CC(C)c1ccccc1Oc1c(Cl)c(Cl)c2c(c1Cl)/C1=N/c3c4c(Cl)c(Oc5ccccc5C(C)C)c(Cl)c(Cl)c4c4[n]3[Zn][n]3/c(c5ccccc5/c3=N/C2=N1)=N\C1=NC(=N\4)/c2c(Cl)c(Cl)c(Cl)c(Cl)c21` [Synthesis Example 1]: 616 nm and “○”.
For `CC(C)COc1c(Cl)c(Cl)c2c(c1Cl)/C1=N/c3c4c(Cl)c(OCC(C)C)c(Cl)c(Cl)c4c4[n]3[Zn][n]3/c(c5ccccc5/c3=N/C2=N1)=N\C1=NC(=N\4)/c2ccccc21` [Synthesis Example 20], in that order: 611 nm and “○”.
The matching figures for `CC(C)(C)c1ccc(Oc2c(Cl)c(Cl)c3c(c2Cl)/C2=N/c4c5c(Cl)c(Oc6ccc(C(C)(C)C)cc6C(C)(C)C)c(Cl)c(Cl)c5c5[n]4[Zn][n]4/c(c6ccccc6/c4=N/C3=N2)=N\C2=NC(=N\5)/c3c(Cl)c(Cl)c(Cl)c(Cl)c32)c(C(C)(C)C)c1` [Synthesis Example 8]: 616 nm and “○”.
Consider `CCC(C)c1ccccc1Oc1c(Cl)c(Cl)c2c(c1Cl)C1=NC/2=N\c2c3c(Cl)c(Cl)c(Oc4ccccc4C(C)CC)c(Cl)c3c3[n]2[Zn][n]2/c(c4c(Cl)c(Cl)c(Oc5ccccc5C(C)CC)c(Cl)c4/c2=N/C2=NC(=N\3)/c3c(Cl)c(Oc4ccccc4C(C)CC)c(Cl)c(Cl)c32)=N\1` (stereo not drawn) [Comparative Synthesis Example 1, reference compound], for which the “The shortest wavelength (nm)” value in data set [1] is on record as 628 nm. Besides, the Solubility result in data set [2] is reported as “X (Less than 10 wt % of a compound (a solute) based on a total amount of a diluting solvent was dissolved)”.
